From PubChem BioAssay (NCI)
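Exposure lasted 48 hours, with cells grown in 96-well plates and compounds tested at five concentrations. TGI: concentration producing complete growth inhibition.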

Experiments:
Assay in all cases: NCI tumour cell line growth inhibition, 48 h
[1] = test system: 786-0 renal
[2] = test system: ACHN renal
[3] = test system: CCRF-CEM leukemia
[4] = test system: HCT-116 colon
[5] = test system: HOP-92 NSCLC
[6] = test system: HT29 colon
[7] = test system: IGROV1 ovarian
[8] = test system: K-562 leukemia
[9] = test system: MALME-3M melanoma
[10] = test system: MDA-MB-231 breast
[11] = test system: NCI-H226 lung
[12] = test system: NCI-H460 lung
[13] = test system: OVCAR-5 ovarian
[14] = test system: RPMI-8226 leukemia
[15] = test system: RXF 393 renal
[16] = test system: SK-MEL-28 melanoma
[17] = test system: SNB-19 CNS
[18] = test system: U251 CNS
[19] = test system: OVCAR-3 ovarian

Row | Compound | TGI [1] | TGI [2] | TGI [3] | TGI [4] | TGI [5] | TGI [6] | TGI [7] | TGI [8] | TGI [9] | TGI [10] | TGI [11] | TGI [12] | TGI [13] | TGI [14] | TGI [15] | TGI [16] | TGI [17] | TGI [18] | TGI [19]
1 | CCOc1ccc2ccccc2c1NC1=NCCO1 | > 100 µM | > 100 µM | > 100 µM | > 100 µM | 42.2 µM | > 100 µM | > 100 µM | 61.3 µM | > 100 µM | > 100 µM | 85.4 µM | 57.7 µM | > 100 µM | 59.4 µM | > 100 µM | > 100 µM | > 100 µM | > 100 µM | –
2 | CC(CC(=O)CO[C@H]1[C@H](O)[C@@H](O)[C@@H](O)[C@@H]2NC(=O)c3c(cc4c(c3O)OCO4)[C@H]21)OC1OC(CO)C(O)C(O)C1O (some centres undefined) | 2.92 µM | 2.6 µM | 0.582 µM | 1.67 µM | 4.57 µM | 2.32 µM | 6.82 µM | – | 3.16 µM | 1.89 µM | 3.54 µM | – | 5.7 µM | 2.07 µM | 1.8 µM | 14.3 µM | 7.89 µM | – | 2.65 µM
3 | CC12CC3CC/C(=N\O)C(C1)C3(N1CCOCC1)C/C2=N/O (centres undefined) | > 100 µM | > 100 µM | > 100 µM | > 100 µM | > 100 µM | > 100 µM | > 100 µM | > 100 µM | > 100 µM | > 100 µM | > 100 µM | > 100 µM | > 100 µM | – | > 100 µM | > 100 µM | > 100 µM | > 100 µM | > 100 µM
4 | CC(O)c1c2c(cc3c1CC1(C3)Cc3cc4c(c(C(C)O)c3C1)CCC4)CCC2 (centres undefined) | 28.9 µM | 31.4 µM | 22.1 µM | 24.8 µM | 31.6 µM | 28.3 µM | 42.3 µM | 26.8 µM | 34.5 µM | 34.8 µM | 34 µM | – | 50.2 µM | 38.5 µM | 30 µM | – | – | 29.3 µM | 29.4 µM
5 | O=S(=O)(c1cc(Cl)ccc1Cl)N1CCN(c2ccc(Cl)c(Cl)c2)CC1 | 34.3 µM | 95.9 µM | > 100 µM | > 100 µM | 35.4 µM | > 100 µM | > 100 µM | > 100 µM | > 100 µM | > 100 µM | 54.1 µM | – | > 100 µM | > 100 µM | 52.2 µM | > 100 µM | 32.1 µM | 54.8 µM | 38.5 µM
6 | COC(=O)C1Cc2c([nH]c3ccccc23)C(c2cccc(O)c2)N1 (centres undefined) | > 100 µM | > 100 µM | 43.2 µM | > 100 µM | 79.9 µM | 83.4 µM | > 100 µM | > 100 µM | – | 51.2 µM | > 100 µM | 62 µM | 82.9 µM | 87.3 µM | 55.4 µM | 73.4 µM | > 100 µM | > 100 µM | > 100 µM
7 | O=[N+]([O-])c1cccc(N=C2c3ccccc3CN2c2cccc([N+](=O)[O-])c2)c1 | > 100 µM | > 100 µM | – | > 100 µM | > 100 µM | > 100 µM | > 100 µM | > 100 µM | – | > 100 µM | > 100 µM | > 100 µM | > 100 µM | > 100 µM | > 100 µM | > 100 µM | > 100 µM | > 100 µM | > 100 µM
8 | Cc1ccc(/C=C2\N=C(N3CCCCC3)NC2=O)cc1 | > 100 µM | > 100 µM | > 100 µM | > 100 µM | > 100 µM | > 100 µM | – | – | > 100 µM | > 100 µM | > 100 µM | – | > 100 µM | > 100 µM | > 100 µM | > 100 µM | > 100 µM | > 100 µM | > 100 µM
9 | COc1c(Cl)ccc(Cl)c1C(=O)NNC(=O)c1c(Cl)c(Cl)c(Cl)c(Cl)c1-c1nc2ccc(C(=O)c3ccccc3)cc2[nH]1 | > 100 µM | > 100 µM | > 100 µM | > 100 µM | > 100 µM | > 100 µM | > 100 µM | > 100 µM | > 100 µM | > 100 µM | > 100 µM | – | > 100 µM | 90.8 µM | > 100 µM | > 100 µM | > 100 µM | > 100 µM | > 100 µM
10 | O=C(c1ccc(Cl)cc1Cl)N(Cc1cccnc1)C(=S)N(Cc1cccnc1)C(=O)c1ccc(Cl)cc1Cl | 5.34 µM | 23.5 µM | > 100 µM | 6.19 µM | 12 µM | 5.52 µM | – | > 100 µM | 36.9 µM | 6.53 µM | 38.3 µM | 39.2 µM | 23.2 µM | > 100 µM | 33.2 µM | 33.7 µM | 25.1 µM | 9.88 µM | 10.1 µM
11 | Cc1cn(CC2=NCCN2)c(=O)[nH]c1=O | > 100 µM | > 100 µM | > 100 µM | > 100 µM | > 100 µM | > 100 µM | > 100 µM | > 100 µM | > 100 µM | > 100 µM | > 100 µM | > 100 µM | > 100 µM | > 100 µM | > 100 µM | > 100 µM | > 100 µM | > 100 µM | –
12 | CC(=O)OCCC1c2ccccc2-n2nc(-c3ccccc3)c(O)c21 (centres undefined) | 38.4 µM | 45.1 µM | 50 µM | 30.4 µM | 27.4 µM | 42.4 µM | – | 37.7 µM | – | 43.3 µM | 64.4 µM | 28.3 µM | 38.7 µM | 33.7 µM | 26 µM | 30.6 µM | 32.2 µM | 26.7 µM | 49.3 µM
13 | Cn1c(=O)n2n(c1=O)Cc1cccc3cccc(c13)C2 | > 100 µM | > 100 µM | > 100 µM | > 100 µM | > 100 µM | > 100 µM | – | > 100 µM | > 100 µM | > 100 µM | > 100 µM | > 100 µM | > 100 µM | > 100 µM | > 100 µM | > 100 µM | > 100 µM | > 100 µM | > 100 µM
14 | CCCCCCCCCCCCCCCC(=O)ON1C(=S)NC(C)(c2ccccc2)C1=S (centres undefined) | > 100 µM | > 100 µM | > 100 µM | > 100 µM | > 100 µM | > 100 µM | > 100 µM | > 100 µM | > 100 µM | > 100 µM | > 100 µM | > 100 µM | > 100 µM | > 100 µM | > 100 µM | – | > 100 µM | – | > 100 µM
15 | COc1ccc(NC(=O)CC(=O)n2nc(C)c(N=Nc3ccc(C)c(C)c3)c2C)cc1 | > 100 µM | > 100 µM | > 100 µM | > 100 µM | 65.9 µM | > 100 µM | > 100 µM | – | > 100 µM | > 100 µM | > 100 µM | > 100 µM | > 100 µM | > 100 µM | > 100 µM | > 100 µM | > 100 µM | > 100 µM | > 100 µM
16 | CC(=O)OC1/C(=C/c2ccc([N+](=O)[O-])cc2)C[C@H]2[C@@H]3CC=C4C[C@@H](OC(C)=O)CC[C@]4(C)[C@H]3CC[C@]12C (some centres undefined) | > 100 µM | > 100 µM | > 64.8 µM | > 100 µM | > 100 µM | > 100 µM | > 100 µM | – | > 100 µM | > 100 µM | > 100 µM | > 100 µM | > 100 µM | > 100 µM | 60.4 µM | > 100 µM | > 100 µM | > 100 µM | > 100 µM
17 | COc1ccccc1/C=C1\Sc2scc(-c3cccc([N+](=O)[O-])c3)[n+]2C1=O | 9.63 µM | 9.93 µM | – | 16.7 µM | 16.6 µM | 9.97 µM | 26.1 µM | > 100 µM | 15.7 µM | 19.3 µM | 33.5 µM | 26.9 µM | 39 µM | 9.28 µM | 10.7 µM | 65.2 µM | 25.8 µM | 39.6 µM | 26.7 µM
18 | O=c1[nH]c2cc(C(F)(F)F)ccc2nc1Cc1ccccc1 | > 100 µM | > 100 µM | > 100 µM | > 100 µM | > 100 µM | > 100 µM | > 100 µM | > 100 µM | – | 83.6 µM | > 100 µM | > 100 µM | – | > 100 µM | 85.8 µM | > 100 µM | > 100 µM | > 100 µM | –
19 | CCOC(=O)c1cccc(NC(=O)CBr)c1 | 0.494 µM | 3.09 µM | – | 1.88 µM | 4.14 µM | 3.32 µM | 2.77 µM | 1.63 µM | 4.22 µM | 3.51 µM | 2.8 µM | 3.46 µM | 3.28 µM | 3.74 µM | 3.24 µM | 7.75 µM | 16.6 µM | 1.89 µM | 3.34 µM
20 | O=C1C(C(O)(C(F)(F)Cl)C(F)(F)Cl)CCC1C(O)(C(F)(F)Cl)C(F)(F)Cl (centres undefined) | > 10 µM | > 10 µM | – | 5.71 µM | 5.39 µM | > 10 µM | > 10 µM | > 10 µM | > 10 µM | > 10 µM | 9.46 µM | > 10 µM | > 10 µM | > 10 µM | > 10 µM | > 10 µM | > 10 µM | > 10 µM | > 10 µM
